In one experiment the test system is SETVI. The experiment is described as follows: Herbicidal post-emergence action 1a (greenhouse pots, visual rating). It is filed as in vivo, Setaria viridis. As to conditions: rated visually about 3 weeks after treatment, 100% = plants have died, 0% = like control plants. In outline:
(§1)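 Weeds and crops sown in sandy loam in greenhouse pots were sprayed post-emergence at the one-leaf stage (2–3 weeks after sowing) with WP or EC formulations plus 0.5% additive at 600 l/ha water, 320 and/or 80 g/ha. About 3 weeks later damage was rated visually against untreated controls (0% = no effect, 100% = dead).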

Another experiment concerns ABUTH. Described as above. It is filed as in vivo, Abutilon theophrasti. As to conditions: visual rating about 3 weeks after treatment. The procedure, abridged: as §1
For a further experiment, the system named is POAAN. The experiment is described as follows: Herbicidal post-emergence action 1b (twin sowing, 1280 g/ha). Particulars: dosage 1280 g/ha, visual rating about 3 weeks after treatment. It is filed as in vivo, Poa annua. The procedure, abridged:
(§2)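 Twin-sown mono- and dicot weeds in sandy loam were sprayed post-emergence at the one-leaf stage, 2–3 weeks after sowing, with WP or EC formulations in water plus 0.5% additive at 600 L/ha. After about 3 weeks in the greenhouse, activity was rated visually against untreated controls (0% = like control, 100% = plants dead).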

In a further experiment the test system is DIGSA. The experiment is described as follows: Herbicidal pre-emergence action 2a (greenhouse pots, visual scoring). Format: in vivo, Digitaria sanguinalis. As to conditions: dosage 320 g/ha, visual scoring after about 3 weeks. The procedure, abridged:
(§3)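 Percent effect (0% like control, 100% plants died) was scored by eye roughly 3 weeks post-application. Formulated compound went onto the soil covering freshly sown seeds in water at 600 l/ha with 0.5% additive; dose 320 g/ha and/or 80 g/ha.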

Experiment [1] concerns ECHCG. Described as above. It is filed as in vivo, Echinochloa crus-galli. As to conditions: dosage 320 g/ha, visual scoring after about 3 weeks. In outline: as §3
The subject of the next experiment is LOLRI. Described as above. Format: in vivo, Lolium rigidum. As to conditions: dosage 320 g/ha, visual scoring after about 3 weeks vs untreated controls. In outline: as §3
The next experiment relates to VIOTR. The experiment is described as above. Format: in vivo, Viola tricolor. Particulars: dosage 320 g/ha, visual scoring after about 3 weeks vs untreated controls. The procedure, abridged:
as §3

Another experiment deals with AMARE. The experiment is described as follows: Herbicidal pre-emergence action 2b (doubly sown, 1280 g/ha). As to conditions: doubly sown pots, dosage 1280 g/ha, visual scoring after about 3 weeks. Format: in vivo, Amaranthus retroflexus. The procedure, abridged: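 Weed seeds sown in sandy loam, two species per pot, covered with soil; compounds as WP or EC applied to soil surface as aqueous suspension/emulsion with 0.5% additive at 600 L/ha water. Greenhouse growth; visual % activity vs untreated controls after about 3 weeks (100% = dead, 0% = like control).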

Another experiment has as its system harmful plants. The experiment is described as follows: Herbicidal pre-emergence action 2a, summary across species. Format: in vivo. Particulars: Tables B1 to B15 (320 g/ha and/or 80 g/ha). The procedure, abridged:
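Pre-emergence greenhouse test: WP or EC formulations sprayed onto soil covering sown weed and crop seeds, 600 l/ha water with 0.5% additive, at 320 g/ha and/or 80 g/ha. Damage scored visually after about 3 weeks as % versus untreated control (100% = plants dead).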

The test system of experiment [2] is ECHCG. Description: Herbicidal post-emergence action 1a (greenhouse pots, visual rating). It is filed as in vivo, Echinochloa crus-galli. Particulars: rated visually about 3 weeks after treatment, 100% = plants have died, 0% = like control plants. The procedure, abridged: as §1
The subject of another experiment is MATIN. The experiment is described as follows: Herbicidal post-emergence action 1b (twin sowing, 1280 g/ha). It is filed as in vivo, Matricaria inodora. As to conditions: dosage 1280 g/ha, visual rating about 3 weeks after treatment. In outline: as §2

Molecules are shown by their SMILES.

For `COC(=O)C(C)Oc1nn(-c2cnccn2)c(-c2ccnc(F)c2)c1Cl` (racemic) [Example I-05], the “Post-emergence action against SETVI in %” value in the experiment on SETVI (Dosage 320 g/ha) is 80%. Moreover, the “Post-emergence action against ABUTH in %” value in the experiment with ABUTH (dosage 320 g/ha) came out at 80%. In addition, the “Post-emergence action at 1280 g/ha against POAAN in %” value in the experiment with POAAN amounted to 100%. The “Pre-emergence action against DIGSA in %” value in the experiment on DIGSA is reported as 100%. Besides, the “Pre-emergence action against ECHCG in %” value in the experiment with ECHCG [1] was 90%. In addition, in the experiment on LOLRI, the “Pre-emergence action against LOLRI in %” value amounted to 100%. Moreover, in the experiment on VIOTR, the “Pre-emergence action against VIOTR in %” value is given as 100%. Further, in the experiment with AMARE, the “Pre-emergence action at 1280 g/ha against AMARE in %” value was 100%. The “herbicidal efficacy against harmful plants in the case of pre-emergence treatment (in words)” value (“herbicidal efficacy” below) in the experiment on harmful plants is “good herbicidal efficacy”.
On to `COC(=O)C(C)Oc1nn(-c2cnccn2)c(-c2ccc(F)c(F)c2)c1Br` (racemic) [Example I-16], for which the “Post-emergence action against ECHCG in %” value with ECHCG [2] (Dosage 320 g/ha) is given as 90%. Moreover, the figures for the “Post-emergence action against SETVI in %” value with SETVI (Dosage 80 g/ha) and in the experiment with SETVI (Dosage 320 g/ha) were 80% and 90%, respectively. The “Post-emergence action against ABUTH in %” value in the experiment with ABUTH (dosage 320 g/ha) is on record as 80%. Further, in the experiment on POAAN, the “Post-emergence action at 1280 g/ha against POAAN in %” value is reported as 100%. Besides, the “Post-emergence action at 1280 g/ha against MATIN in %” value in the experiment on MATIN came out at 90%. Moreover, in the experiment on DIGSA, the “Pre-emergence action against DIGSA in %” value was 100%. Further, in the experiment on LOLRI, the “Pre-emergence action against LOLRI in %” value is 100%. Moreover, in the experiment on VIOTR, the “Pre-emergence action against VIOTR in %” value is 100%. The “Pre-emergence action at 1280 g/ha against AMARE in %” value in the experiment with AMARE is given as 100%. The “herbicidal efficacy” value with harmful plants is given as “good herbicidal efficacy”.
For `COC(=O)[C@@H](C)Oc1nn(-c2cnccn2)c(-c2ccnc(F)c2)c1Br` [Example I-34], the “Post-emergence action against SETVI in %” value in the experiment on SETVI (Dosage 80 g/ha) stood at 80%; in the experiment on SETVI (Dosage 320 g/ha) it was 90%. Also, the “Post-emergence action at 1280 g/ha against POAAN in %” value in the experiment on POAAN was 100%. Moreover, the “Post-emergence action at 1280 g/ha against MATIN in %” value in the experiment on MATIN worked out at 90%. Besides, in the experiment with DIGSA, the “Pre-emergence action against DIGSA in %” value worked out at 100%. In addition, in the experiment with ECHCG [1], the “Pre-emergence action against ECHCG in %” value is 80%. Besides, the “Pre-emergence action against LOLRI in %” value in the experiment on LOLRI turned out to be 100%. Also, the “Pre-emergence action against VIOTR in %” value in the experiment with VIOTR is 100%. Besides, the “Pre-emergence action at 1280 g/ha against AMARE in %” value with AMARE amounted to 100%. Besides, the “herbicidal efficacy” value in the experiment with harmful plants was “good herbicidal efficacy”.
In the case of `COC(=O)[C@@H](C)Oc1nn(-c2cnccn2)c(-c2ccc(F)nc2)c1Cl` [Example I-36], the “Post-emergence action against SETVI in %” value with SETVI (Dosage 320 g/ha) amounted to 100%. Also, in the experiment with ABUTH (dosage 320 g/ha), the “Post-emergence action against ABUTH in %” value stood at 80%. Further, in the experiment with POAAN, the “Post-emergence action at 1280 g/ha against POAAN in %” value came to 100%. Besides, in the experiment on MATIN, the “Post-emergence action at 1280 g/ha against MATIN in %” value turned out to be 90%. The “Pre-emergence action against DIGSA in %” value with DIGSA is given as 100%. Also, the “Pre-emergence action against ECHCG in %” value in the experiment on ECHCG [1] is recorded as 100%. Moreover, the “Pre-emergence action against LOLRI in %” value in the experiment with LOLRI is given as 100%. For the same compound, in the experiment on VIOTR, the “Pre-emergence action against VIOTR in %” value stood at 100%. In the experiment on AMARE, the “Pre-emergence action at 1280 g/ha against AMARE in %” value amounted to 100%. Moreover, the “herbicidal efficacy” value in the experiment with harmful plants is recorded as “good herbicidal efficacy”.
In the case of `COC(=O)C(C)Oc1nn(-c2cnccn2)c(-c2cncc(F)c2)c1Br` (racemic) [Example I-08], the “Post-emergence action against ECHCG in %” value was found to be 80% in the experiment with ECHCG [2] (Dosage 80 g/ha) and 90% in the experiment with ECHCG [2] (Dosage 320 g/ha). The “Post-emergence action against SETVI in %” value with SETVI (Dosage 80 g/ha) and with SETVI (Dosage 320 g/ha) was 80% in each case. Also, the “Post-emergence action against ABUTH in %” value in the experiment with ABUTH (dosage 80 g/ha) is given as 80%; in the experiment with ABUTH (dosage 320 g/ha), 90%. For the same compound, the “Pre-emergence action against DIGSA in %” value in the experiment with DIGSA is 100%. The “Pre-emergence action against ECHCG in %” value in the experiment with ECHCG [1] is reported as 100%. Besides, in the experiment on LOLRI, the “Pre-emergence action against LOLRI in %” value amounted to 100%. In the experiment on VIOTR, the “Pre-emergence action against VIOTR in %” value came to 100%. Also, in the experiment on harmful plants, the “herbicidal efficacy” value is on record as “good herbicidal efficacy”.
Take `CCOC(=O)COc1nn(-c2cnccn2)c(-c2ccccc2)c1Br` [Example I-01]: in the experiment with ECHCG [2] (Dosage 320 g/ha), the “Post-emergence action against ECHCG in %” value came to 90%. The “Post-emergence action against ABUTH in %” value in the experiment with ABUTH (dosage 320 g/ha) amounted to 80%. Moreover, the “Post-emergence action at 1280 g/ha against MATIN in %” value in the experiment on MATIN stood at 90%. Moreover, the “Pre-emergence action against DIGSA in %” value with DIGSA turned out to be 90%. Also, the “Pre-emergence action against ECHCG in %” value with ECHCG [1] was 80%. Also, the “Pre-emergence action against LOLRI in %” value in the experiment with LOLRI stood at 80%. In addition, the “Pre-emergence action at 1280 g/ha against AMARE in %” value with AMARE is listed as 100%. The “herbicidal efficacy” value in the experiment on harmful plants was “good herbicidal efficacy”.
